Experiment [1] addresses His-tagged protein corresponding to amino acids 575-869 of human Tyk2 (Homo sapiens (Human), UniProt P29597). The experiment is described as follows: Probe displacement assay (scintillation proximity, radiolabeled probe). As to conditions: 2.5 nM Tyk2 (575-869), 40 nM [3H] probe, 30 minutes at room temperature. Format: binding. On the procedure: The probe displacement assay is conducted as follows: In a […], test compounds along with recombinantly expressed His-tagged protein corresponding to amino acids 575-869 of human Tyk2 (sequence shown below) at 2.5 nM, 40 nM ((R)—N-(1-(3-(8-methyl-5-(methylamino)-8H-imidazo[4,5-d]thiazolo[5,4-b]pyridin-2-yl)phenyl)ethyl)-2-([^3H]methylsulfonyl)benzamide) (preparation described below) and 80 μg/mL Copper His-Tag scintillation proximity assay beads (Perkin Elmer, Catalog #RPNQ0095) in 50 mM HEPES, pH 7.5, containing 100 μg/mL bovine serum albumin and 5% DMSO were incubated for 30 minutes at room temperature.
Protein Sequence of recombinant Hig-tagged Tyk2 (575-869):
The preparation of radiolabeled probe, (R)—N-(1-(3-(8-methyl-5-(methylamino)-8H-imidazo[4,5-d]thiazolo[5,4-b]pyridin-2-yl)phenyl)ethyl)-2-([^3H]methylsulfonyl)benzamide, was performed as described below.

For experiment [2], the system named is IL-23 stimulated Kit225 T cells (STAT-dependent luciferase reporter). The experiment in a line: Kit225 T cell assay, IL-23-stimulated STAT-dependent luciferase reporter. The conditions noted are these: 20 ng/mL human recombinant IL-23, 5-6 hours; read-out: IL-23 Kit225 Reporter (IC50). Format: cell-based, human. In a few lines: (§1)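 Kit225 T cells carrying a stable STAT-dependent luciferase reporter, stimulated 5-6 h with 20 ng/mL human IL-23 or 200 U/mL human IFNα. Luminescence read out; % inhibition derived against unstimulated (100%) and no-inhibitor (0%) controls.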
In general terms: In a reporter assay the amount or activity of a reporter protein is the signal.

The test system of experiment [3] is IFNα stimulated Kit225 T cells (STAT-dependent luciferase reporter). The experiment is described as follows: Kit225 T cell assay, IFNα-stimulated STAT-dependent luciferase reporter. The conditions noted are these: 200 U/mL human recombinant IFNα, 5-6 hours; read-out: IFNα Kit225 Reporter (IC50). Format: cell-based, human. The method in brief: as §1

Sequence of His-tagged protein corresponding to amino acids 575-869 of human Tyk2 (P29597 other isoform, or with tags, fused parts or gaps): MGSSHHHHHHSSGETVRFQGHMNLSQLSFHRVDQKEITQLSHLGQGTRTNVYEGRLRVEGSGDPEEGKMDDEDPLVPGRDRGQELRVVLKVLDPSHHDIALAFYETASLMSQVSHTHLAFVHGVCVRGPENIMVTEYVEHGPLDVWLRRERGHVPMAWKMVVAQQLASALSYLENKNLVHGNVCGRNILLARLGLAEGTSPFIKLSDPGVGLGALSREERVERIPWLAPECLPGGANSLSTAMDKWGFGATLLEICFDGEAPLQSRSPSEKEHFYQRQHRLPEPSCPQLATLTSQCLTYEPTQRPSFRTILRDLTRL

Broadly, the EC50 is the concentration at which the effect is half-maximal. A low value points to higher potency in that assay. Broadly, the IC50 is the point on the concentration scale where inhibition reaches its midpoint. In experiment [1], `CNC(=O)c1nnc(NC(=O)C2CC2)cc1Nc1cccc(-c2ncn(CC(F)F)n2)c1OC` [Example 176] registered an EC50 of 6.35 nM. Moreover, the IC50 was 40 nM in experiment [2] and 20 nM in experiment [3].

`CNC(=O)c1nnc(NC(=O)C2CC2)cc1Nc1cccc(-c2nnn(C)n2)c1OC` [Example 146] displayed an EC50 in experiment [1] of 1.7 nM. Further, the IC50 in experiment [2] is 10 nM; in experiment [3], 5.33 nM.

Regarding `CNC(=O)c1nnc(Nc2cc(C)nc(C)n2)cc1Nc1cccc(-c2ncn(C)n2)c1OC` [Example 108], it took 1.46 nM to reach a half-maximal effect in experiment [1] (EC50). For the same compound, the IC50 in experiment [2] was 8.49 nM; in experiment [3], 3.54 nM.

`CNC(=O)c1nnc(Nc2cc(C)c(F)cn2)cc1Nc1cccc(-c2n[nH]c(C)n2)c1OC` [Example 142] yielded an EC50 in experiment [1] of 6.95 nM. Also, the IC50 was 6.59 nM in experiment [2] and 4.3 nM in experiment [3].

The compound `CNC(=O)c1nnc(Nc2ccccn2)cc1Nc1cccc(-c2nnn(C)n2)c1OC` [Example 147] came in with an EC50 in experiment [1] of 0.877 nM. Moreover, the IC50 stood at 1.01 nM in experiment [2] and 4.42 nM in experiment [3].

Take `CNC(=O)c1nnc(NC(=O)C2CC2)cc1Nc1cccc(-c2ccc(C)nn2)c1OC` [Example 69]: a half-maximal effect in experiment [1] (EC50) was put at 70 nM. The IC50 in experiment [2] came out at 380 nM; in experiment [3], 160 nM.

For the compound `CNC(=O)c1nnc(Nc2cc(C)n(C)n2)cc1Nc1cccc(-c2cnn(C)c2)c1OC` [Example 85], the EC50 in experiment [1] was 7.36 nM. Besides, the IC50 in experiment [2] was 170 nM; in experiment [3], 50 nM.

Turning to `CNC(=O)c1nnc(Nc2cc(C)nc(COC)n2)cc1Nc1cccc(-c2ncn(C)n2)c1OC` [Example 114], the midpoint of the response in experiment [1], the EC50, lay at 1.89 nM. In addition, the results for the IC50 in experiment [2] and in experiment [3] were 8.29 nM and 3.77 nM, respectively.

In experiment [1], `CNC(=O)c1nnc(Nc2cc(C(C)O)ccn2)cc1Nc1cccc(-c2ncn(C)n2)c1OC` (stereo not drawn) [Example 84] came in with an EC50 of 1.28 nM. The IC50 came out at 20 nM in experiment [2] and 9.39 nM in experiment [3].

With `CNC(=O)c1nnc(Nc2cc(NC(=O)C3CC3)nc(C)n2)cc1Nc1cccc(-c2ncn(C)n2)c1OC` [Example 134], the EC50 in experiment [1] is 5.64 nM. Moreover, the IC50 was determined as 30 nM in experiment [2] and 10 nM in experiment [3].

As for `CNC(=O)c1nnc(Nc2ccccn2)cc1Nc1cccc(-c2nc(C)cs2)c1OC` [Example 73], in experiment [1], the concentration for a half-maximal effect (EC50) is 5.21 nM. Moreover, the IC50 in experiment [2] was determined as 80 nM; in experiment [3] it was 50 nM.

`CS(=O)(=O)c1ccccc1Nc1cc(Nc2ccc(F)cn2)nnc1C(=O)NC1CC1` [Example 5] registered an EC50 in experiment [1] of 410 nM. For the same compound, the values for the IC50 in experiment [2] and in experiment [3] were 12500 nM and 6360 nM, respectively.

Compound `CNC(=O)c1nnc(Nc2ccc(CO)cn2)cc1Nc1cccc(-c2ncn(C)n2)c1OC` [Example 102] showed an EC50 in experiment [1] of 1.59 nM. In addition, the IC50 in experiment [2] worked out at 40 nM; in experiment [3], 30 nM.

In experiment [1], `CNC(=O)c1nnc(Nc2ccncn2)cc1Nc1cccc(-c2ncn(C)n2)c1OC` [Example 94] yielded an EC50 of 1.72 nM. For the same compound, the IC50 is 30 nM in experiment [2] and 8.59 nM in experiment [3].

As to `CNC(=O)c1nnc(Nc2ccccn2)cc1Nc1cccc(-c2ncn(C)n2)c1OC` [Example 76], the midpoint of the response in experiment [1], the EC50, lay at 6.17 nM. For the same compound, the IC50 turned out to be 1.99 nM in experiment [2] and 3.49 nM in experiment [3].

As for `CNC(=O)c1nnc(NC(=O)C2CC2)cc1Nc1ccccc1OC` [Example 125], a half-maximal effect in experiment [1] (EC50) was put at 110 nM. For the same compound, the values for the IC50 in experiment [2] and in experiment [3] were 170 nM and 430 nM, respectively.

For the origin of these results see patent US11021475B2, “Amide-substituted heterocyclic compounds useful as modulators of IL-12, IL-23 and/or IFN alpha responses” (Bristol-Myers Squibb Company, priority 2012, dated 2021).
